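Grown in 96-well plates, cells were treated for 48 hours with each compound at five concentrations. Insufficient inhibition: endpoint recorded as highest concentration tested. Definition used: TGI = concentration required for complete inhibition of growth.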
What was measured:
Experiment in all cases: NCI anticancer screen, dose series, 48 h
786-0 renal = test system: 786-0 renal
A498 renal = test system: A498 renal
A549 NSCLC = test system: A549 NSCLC
ACHN renal = test system: ACHN renal
BT-549 breast = test system: BT-549 breast
CAKI-1 renal = test system: CAKI-1 renal
CCRF-CEM leukemia = test system: CCRF-CEM leukemia
COLO 205 colon = test system: COLO 205 colon
DU-145 prostate = test system: DU-145 prostate
EKVX NSCLC = test system: EKVX NSCLC
HCT-116 colon = test system: HCT-116 colon
HCT-15 colon = test system: HCT-15 colon
HL-60(TB) leukemia = test system: HL-60(TB) leukemia
HOP-62 NSCLC = test system: HOP-62 NSCLC
HOP-92 NSCLC = test system: HOP-92 NSCLC
HS 578T breast = test system: HS 578T breast
HT29 colon = test system: HT29 colon
IGROV1 ovarian = test system: IGROV1 ovarian
K-562 leukemia = test system: K-562 leukemia
KM12 colon = test system: KM12 colon
LOX IMVI melanoma = test system: LOX IMVI melanoma
M14 melanoma = test system: M14 melanoma
MALME-3M melanoma = test system: MALME-3M melanoma
MCF7 breast = test system: MCF7 breast
MDA-MB-231 breast = test system: MDA-MB-231 breast
MDA-MB-435 = test system: MDA-MB-435
MDA-N = test system: MDA-N
MOLT-4 leukemia = test system: MOLT-4 leukemia
NCI-H23 lung = test system: NCI-H23 lung
NCI-H460 lung = test system: NCI-H460 lung
NCI-H522 lung = test system: NCI-H522 lung
NCI/ADR-RES ovarian = test system: NCI/ADR-RES ovarian
OVCAR-3 ovarian = test system: OVCAR-3 ovarian
OVCAR-4 ovarian = test system: OVCAR-4 ovarian
OVCAR-5 ovarian = test system: OVCAR-5 ovarian
OVCAR-8 ovarian = test system: OVCAR-8 ovarian
PC-3 prostate = test system: PC-3 prostate
RPMI-8226 leukemia = test system: RPMI-8226 leukemia
RXF 393 renal = test system: RXF 393 renal
SF-268 CNS = test system: SF-268 CNS
SF-295 CNS = test system: SF-295 CNS
SF-539 CNS = test system: SF-539 CNS
SK-MEL-2 melanoma = test system: SK-MEL-2 melanoma
SK-MEL-28 melanoma = test system: SK-MEL-28 melanoma
SK-MEL-5 melanoma = test system: SK-MEL-5 melanoma
SK-OV-3 ovarian = test system: SK-OV-3 ovarian
SN12C renal = test system: SN12C renal
SNB-19 CNS = test system: SNB-19 CNS
SNB-75 CNS = test system: SNB-75 CNS
SR leukemia = test system: SR leukemia
SW-620 colon = test system: SW-620 colon
T-47D breast = test system: T-47D breast
TK-10 renal = test system: TK-10 renal
U251 CNS = test system: U251 CNS
UACC-257 melanoma = test system: UACC-257 melanoma
UACC-62 melanoma = test system: UACC-62 melanoma
UO-31 renal = test system: UO-31 renal
NCI-H226 lung = test system: NCI-H226 lung

Measured: TGI

O=C(c1cccc(F)c1F)N1CCc2c([nH]c3ccccc23)C1c1ccc2c(c1)OCO2 (stereo not drawn)
18.7 µM: HL-60(TB) leukemia
74.5 µM: MDA-MB-231 breast
6.09 µM: MDA-MB-435
32.7 µM: KM12 colon
51.9 µM: SK-OV-3 ovarian
60.4 µM: UACC-257 melanoma
7.01 µM: MDA-N
13.4 µM: SK-MEL-5 melanoma
48.1 µM: RPMI-8226 leukemia
53 µM: NCI/ADR-RES ovarian
65.3 µM: EKVX NSCLC
87.2 µM: CAKI-1 renal
21.3 µM: SR leukemia
39.2 µM: PC-3 prostate
18.4 µM: M14 melanoma
48.8 µM: UACC-62 melanoma
35.4 µM: RXF 393 renal
61.4 µM: SNB-19 CNS
29.9 µM: NCI-H460 lung
22.2 µM: SNB-75 CNS
72.5 µM: A549 NSCLC
91.1 µM: SN12C renal
2.83 µM: HOP-62 NSCLC
60.2 µM: NCI-H522 lung
67.8 µM: OVCAR-4 ovarian
57.4 µM: MCF7 breast
12.9 µM: COLO 205 colon
47.7 µM: UO-31 renal
5.26 µM: OVCAR-3 ovarian
21.4 µM: SF-539 CNS
26.3 µM: SF-295 CNS
16.5 µM: SK-MEL-2 melanoma
not listed: NCI-H226 lung
> 100 µM: all other assays above

Cc1n[nH]c(=S)n1/N=C/c1ccc(-c2ccc(Cl)cc2)o1
82.9 µM: SNB-75 CNS
not listed: CCRF-CEM leukemia | COLO 205 colon | MALME-3M melanoma | SK-OV-3 ovarian | SN12C renal | SNB-19 CNS | UACC-62 melanoma
> 100 µM: all other assays above
